The melting point is the temperature of the solid-liquid transition. As for `CCCOc1nc(N)c2ncn(C3CCCCC3)c2n1`, the melting point is 146 to 148 °C. In turn, `CCOc1cc(Cc2cnc(N)nc2N)cc2c1OC1(C=C2Br)CCC1` registered a melting point of 213 to 214 °C.

`Cc1ccc2c(c1)C(C)(C)[C@@H](C)[C@H](C)C2(C)C` (relative stereo) gave a melting point of 65 to 66 °C. In turn, `CCCOCCCCCCCCCC(=O)O` came in with a melting point of under 30 °C. `CSc1cc2c(cc1SC)C(=O)c1cc3ccccc3cc1C2=O` had a melting point of over 260 °C. Compound `COc1cc2c(cc1Nc1ncc(Cl)c(Nc3ccc(N(C)C)cc3S(=O)(=O)C(C)C)n1)CCN(CC(=O)N(C)C)CC2` registered a melting point of 81 to 93 °C. On to `CCOC(=O)COC(=O)c1cc(-n2nc3ccc(Cl)cn3c2=O)c(F)cc1Cl`, for which the melting point is 62 to 65 °C. With `CC(C(=O)O)c1ccc(-c2cn3cccnc3n2)cc1` (centres undefined), the melting point is 248 °C. For `COc1ccccc1CNC(=O)C(=O)NCCc1ccccn1` the value was 118 to 119 °C; for `CS(=O)(=O)Nc1ccc([N+](=O)[O-])cc1N`, 201 to 204 °C. Take `CCOC(=O)c1cn(CCCl)c2cc(N3CCN(C)CC3)c(F)cc2c1=O`: the melting point came out at 208 °C. For the compound `C=CCc1c(O)c(=O)[nH]c2ccccc2c1=O`, the melting point lay within 174 to 175 °C. In the case of `c1ccc2c(c1)OCCO2`, the melting point lay in the range of 117 to 118 °C. `Cc1ccccc1-c1nc(N)ncc1-c1ccc(=O)[nH]n1` came in with a melting point of 313 °C.

In the case of `O=C(CCC(O)c1ccccc1)N1CCCCC1` (centres undefined), the melting point was 42 to 44 °C. On to `C#Cc1cc2c(=O)nc(CCCC)[nH]c2cc1F`, for which the melting point worked out at 218 °C. `CCOc1cc([C@@H](CC(=O)N(C)C)N2Cc3cccc(NC(=O)N(C)C)c3C2=O)ccc1OC` gave a melting point of 105 to 107 °C. For the compound `Cc1ccc(-c2nnc[nH]2)cc1-c1cc2cnc(NC3CCOCC3)nc2n(C)c1=O`, the melting point is 215 to 216 °C. On to `CC(=O)NC[C@@H]1C[C@H]1c1cccc2c1C[C@@H](CCCCc1ccccc1)O2`, for which the melting point lay within 65 to 66 °C. For `COC(=O)COc1ccc(S(=O)(=O)C(Br)(Br)Br)cc1` the value was 152 to 153 °C; for `O=C1CCC(NC(=O)OC(=O)c2ccccc2)(C(=O)OCc2ccc([N+](=O)[O-])cc2)O1` (centres undefined), 127 to 128 °C; for `CN1C(=O)C(NC(=O)Nc2cccc(C#N)c2)C(=O)N(c2ccccc2)c2ccccc21` (centres undefined), over 250 °C. Compound `C=CCN1CC(c2ccccc2)=C(O)C1=O` returned a melting point of 178 to 183 °C. `O=C1c2ccccc2C(=O)N1CC(=O)N1c2ccccc2N(Cc2ccccc2)C(=O)C(Cc2ccccc2)C1c1ccccc1` (centres undefined) yielded a melting point of 255 to 256 °C. In turn, `Nc1nc(N)c(-c2cc(Cl)cc(Cl)c2Cl)c(C(Cl)(Cl)Cl)n1` came in with a melting point of 226 to 227 °C. `O=C(O)[C@@H]1CCCN(CC#CCN2c3ccccc3CCc3ccccc32)C1` displayed a melting point of 153 to 154 °C. For `O=C1NC(=O)C(=Cc2ccc(OC[C@@H]3CCCN3c3ccccn3)cc2)S1` the value was 164 °C. For the compound `FC(F)(F)c1cc(C(F)(F)F)n(-c2ccc(NCc3ccccc3Cl)cc2)n1`, the melting point was found to be 240 °C. On to `O=c1c2ccc(O)cc2[nH]c2c([N+](=O)[O-])ccc(Cl)c12`, for which the melting point fell in the range of 292 to 294 °C. For the compound `NC(=O)c1cc(OCCNCC(O)c2ccc(OCc3ccccc3)cc2)ccc1O` (centres undefined), the melting point was 160 to 162 °C. Then `CCOC(=O)C1=Cc2cc([N+](=O)[O-])ccc2OC1C(F)(F)F` (centres undefined), with 111 to 115 °C; and `CC(C)(C)OC(=O)N1CCC2(CC1)NC(=O)N(CC(O)CO)C2=O` (centres undefined), with 167 to 170 °C; and `c1ccc(C(CCN2CC3CCC(CC3)C2)(c2ccccc2)c2nnn[nH]2)cc1`, with 284 to 286 °C. `CC(C)(CO)CCCC(O)CCC(O)CCCC(C)(C)CO` (centres undefined) registered a melting point of 96 to 97 °C.

`CCOC(=O)COc1cc(C=O)ccc1OCc1ccccc1` displayed a melting point of 36 to 43 °C. `O=C(c1ccccc1)N(CCCCn1ccnc1)C1=Nc2cccc3cccc1c23` registered a melting point of 139 to 140 °C.

`CC1=CC(OC(=O)c2ccc(O)cc2)C(O)C(C)(C)CC1=O` (centres undefined) yielded a melting point of 123 to 125 °C. Regarding `N#CC(CCCOc1ccccc1)(Cn1cncn1)c1ccccc1` (centres undefined), the melting point was 85 to 86 °C. Compound `CNc1nc2c(C)cccc2c2c1ccn2-c1ccccc1C` yielded a melting point of 129 to 130 °C.

The compound `N#Cc1cc(C(F)(F)F)ccc1Oc1cccc(C(=O)O)c1` came in with a melting point of 224 to 226 °C. `Cc1cccc(-c2nnn[nH]2)c1` returned a melting point of 150 to 152 °C. In turn, `CC(C)(C)c1cc(Oc2ccc(Br)cc2)cc(C(C)(C)C)c1` registered a melting point of 98 to 100 °C. For the compound `COCC(C)Nc1cc(-c2ncnc(Nc3cccc(Cl)c3)n2)ccn1` (centres undefined), the melting point lay within 149 to 151 °C. `Nc1nc2ccccc2c2c1ncn2CCNC(=O)c1ccccc1` gave a melting point of 295 °C. `CC(C)(NC(=O)C1=C(C(=O)Nc2cc(OC3CCCC3)c(Cl)cc2F)CCCC1)c1ccc(Cl)cc1` returned a melting point of 218 to 219 °C. `O=C1c2ccccc2C(=O)N1CCCCI` came in with a melting point of 85 to 87 °C. In turn, `CN(Cc1cccc(-c2ccc(CC3SC(=O)NC3=O)cc2)c1)C(=O)c1cccnc1` (centres undefined) had a melting point of 115 °C. Then `Nc1ccc(C(=O)c2ccccc2)c(F)c1`, with 133 to 135 °C. As to `O=C(CC(=O)C(F)(F)Cl)c1ccc(Cl)cc1`, the melting point lay within 50 to 51 °C.

For the compound `COc1ccc(OC)c(COc2ccc(NC=O)c(C(N)=O)c2)c1`, the melting point fell in the range of 135 to 138 °C. `CCOCOC1CCC2(C)C(C1)C(=O)CC1C2CCC2(C)C1CC1OC3(CCC(C)CO3)C(C)C12` (centres undefined) returned a melting point of 191 to 193 °C. `C=CC(=O)c1cnc(N2CCC[C@H]2CO)nc1NCc1ccc(OC)c(Cl)c1` returned a melting point of 113 to 115 °C. Compound `CC(=O)Oc1cc(/C=C/c2ccc(OC(=O)C(C)(C)Oc3ccc(C(=O)c4ccc(Cl)cc4)cc3)cc2)cc(OC(C)=O)c1` registered a melting point of 112 to 113 °C. Consider `Cc1c(NC(=O)c2ccc(OCC3CC3)cc2)ccc2cc(C(C)N3CCCC3)cnc12` (centres undefined), for which the melting point is 162 to 164 °C. For `Cc1cc(OCCC#Cc2ccc(OC(F)(F)F)cc2)ccc1OC(C)(C)C(=O)O` the value was 62 to 71 °C; for `Cc1cc2n(c1C(=O)c1cccs1)CCC2C(=O)OC(C)C` (centres undefined), 102 °C. For `CCOC(=O)Cc1ccc2c(c1)sc1cc(Cl)ccc12` the value was 68 to 70 °C. For `CCCCCCCCCCC[C@@H](C[C@@H]1OC(=O)[C@H]1CCCCCC)OCCC(N)=O` the value was 35 °C; for `O=C(O)C1=NOC2(CCC(C3CCCCC3)CC2)C1` (centres undefined), 139 to 142 °C; for `O=c1c2cc(F)c(N3CCCC3)cc2n(CC2CC2)c(=O)n1OCc1ccccc1`, 198 to 200 °C. With `CCCc1c(OCCCCCOc2ccccc2CCC(=O)O)ccc2c1OCC2=O`, the melting point is 101 to 102 °C.

Compound `Oc1cc(CCc2ccccc2)cc(O)c1O` displayed a melting point of 124 °C.

With `O=C(O)c1ccc(Cl)nc1Nc1ccccc1`, the melting point fell in the range of 181 to 185 °C. For `Cc1cccc(Cl)c1Nc1ccccc1CC(N)=O` the value was 139 to 141 °C.

Turning to `COc1ccc(C2CCN(C(=O)C(=O)NO)CC2)cc1CC1CCCC1`, the melting point was 138 °C.

As for `Oc1ccc(-c2nnc(CCCCCc3ccccc3)o2)cc1`, the melting point is 118 to 123 °C. Take `CC(C)CCN1C(=O)C(NC(=O)Oc2cccc(Br)c2)C(=O)N(c2ccccc2)c2ccc(Cl)cc21` (centres undefined): the melting point was in the range of 144 to 145 °C. `CCOC(=O)c1cn(C2CC2)c2nc3cc(N4CCNC(c5ccc(OC)cc5)C4)c(F)cc3cc2c1=O` (racemic) displayed a melting point of 199 °C. Compound `CNC(=O)CCC(=O)c1ccccc1` displayed a melting point of 80 to 82 °C. In turn, `Cc1c(-c2cnccn2)sc2nc(N)[nH]c(=O)c12` had a melting point of 280 to 300 °C.

Turning to `CN1CCC(OC2c3ccccc3CCn3c2nc(-c2ccccc2)c3C(N)=O)CC1` (centres undefined), the melting point came out at 102 °C.

Consider `CCCn1c(COCC)nc2c(N)nc3ccc(OCCNC(=O)C4CCCO4)cc3c21` (centres undefined), for which the melting point was in the range of 202 to 204 °C. In turn, `COC(=O)c1cc(N)c(N)cc1OC` yielded a melting point of over 300 °C. In turn, `CCC(NC(=NC#N)Nc1ccc(N(C)C)nc1)c1ccccc1` (centres undefined) came in with a melting point of 107 to 113 °C. Compound `CCOP(=O)(Cc1cccc(CN2C(=O)c3ccccc3C2=O)c1)OCC` displayed a melting point of 100 to 101 °C. Compound `CC(C)NCC(O)COc1ccc(C2=NNC(=O)CC2)cc1` (centres undefined) displayed a melting point of 108 to 115 °C. Then `O=S(=O)(Nc1ccccc1Oc1cccc2cccnc12)c1ccc(F)cc1`, with 243 to 244 °C; and `CO[C@@H](CCc1nc(-c2ccccc2)oc1C)c1ccc(C=C2SC(=O)NC2=O)cc1`, with 205 to 206 °C; and `CCC1(COc2ccc(C=CC(=O)O)cc2)COC1`, with 128 °C.

`CCCCCCCCOC(=O)Nc1ccccc1C1Cc2ccccc2N1` (centres undefined): the melting point lay in the range of 99 to 102 °C.

Regarding `CS(=O)(=O)NC(=O)CCn1c2ccc(O)cc2c2c3c(c(-c4ccccc4Cl)cc21)C(=O)NC3=O`, the melting point fell in the range of 290 to 296 °C. Then `CN1CCN(C2=NC(=O)C(=Cc3cccc(-c4cc(F)c(O)c(C56CC7CC(CC(C7)C5)C6)c4)c3)S2)CC1`, with 226 to 228 °C; and `CC(CCCC(C)C1CCC2C3CC=C4CC(O)CCC4(C)C3CCC12C)CO[Si](C)(C)C(C)(C)C` (centres undefined), with 93.5 °C; and `CC(C)NC(=O)c1ccc(N2CCC(N3C(=O)OCc4ccccc43)CC2)c(C#N)c1`, with 200 °C. `O=C1c2ccccc2C(=O)c2[nH]c(-c3ccccc3)nc21` displayed a melting point of over 260 °C. In the case of `Cc1noc2c(Oc3ncccc3C(=O)NCC3CCC(C(C)(C)O)CC3)cccc12` (centres undefined), the melting point is 170 to 172 °C. Take `CCOC(=O)c1csc(-c2cccs2)n1`: the melting point is 72 to 73 °C. Then `OC(C=Cc1ccccc1)Cn1ccnc1` (centres undefined), with 108 to 110 °C; and `COc1ccc(S(N)(=O)=O)c(-c2cccc3c2Nc2ccc(F)cc2S3)c1`, with 166 to 168 °C.

(Values after a melting point compilation (Tetko et al.; mined from patent text by program, amines drawn as free bases though some values may be those of a salt).)
